# ChEMBL document CHEMBL4813973, “Discovery of novel N-benzylbenzamide derivatives as tubulin polymerization inhibitors with potent antitumor activities” (Eur J Med Chem, 2021)
# Active and inactive are the calls of the source. The rule behind the calls is not given here.
# What was measured:
# [1] = tested on: A-431; assay: Induction of apoptosis in human A-431 cells assessed as chromatin condensation at 7.5 to 30 nM incubated for 48 hrs by Hoechst33342 staining based fluorescent microscopy; type: functional, cell-based; conditions: dose 7.5-30 nM
# [2] = tested on: A-431; assay: Induction of apoptosis in human A-431 cells assessed as nuclear fragmentation at 7.5 to 30 nM incubated for 48 hrs by Hoechst33342 staining based fluorescent microscopy; type: functional, cell-based; conditions: dose 7.5-30 nM
# [3] = tested on: A-431; assay: Induction of apoptosis in human A-431 cells assessed as activation of p53 at 7.5 to 30 nM by western blot analysis; type: functional, cell-based; conditions: dose 7.5-30 nM
# [4] = Induction of mitochondria membrane potential loss in human A-431 cells assessed as green fluorescence intensity at 15 nM incubated 48 hrs by JC-1 probe based flow cytometry analysis (reference value: 5.98%); type: functional
# [5] = tested on: HCT-8; assay: Antiproliferative activity against human HCT-8 cells assessed as reduction in cell viability incubated for 72 hrs by MTT assay; type: functional, cell-based; conditions: Homo sapiens, HCT-8, 72 h; read-out: IC50
# [6] = tested on: MDA-MB-231; assay: Antiproliferative activity against human MDA-MB-231 cells assessed as reduction in cell viability incubated for 72 hrs by MTT assay; type: functional, cell-based; conditions: MDA-MB-231, 72 h
# [7] = Resistant index, ratio of IC50 for ADR-resistant human Bel-7402 cells to IC50 for human Bel-7402 cells; type: functional
# [8] = Resistant index, ratio of IC50 for taxol-resistant human HCT-8 cells to IC50 for human HCT-8 cells; type: functional
# [9] = Aqueous solubility of the compound in phosphate buffer at pH 7.4 by HPLC-UV analysis; type: physicochemical
# [10] = species: Sus scrofa; assay: Inhibition of [3H]colchicine binding to biotinylated pig brain tubulin at 1 uM incubated for 2 hrs in presence of GTP by competitive scintillation proximity assay; type: tissue-based
# [11] = species: Sus scrofa; assay: Inhibition of [3H]colchicine binding to biotinylated pig brain tubulin at 5 uM incubated for 2 hrs in presence of GTP by competitive scintillation proximity assay; type: tissue-based
# [12] = tested on: A-431; assay: Anti-microtubule activity in human A-431 cells assessed as disruption of microtubule network at 7.5 to 30 nM incubated for 24 hrs by DAPI staining based confocal microscopic analysis; type: functional, cell-based; conditions: dose 7.5-30 nM
# [13] = tested on: A-431; assay: Anti-microtubule activity in human A-431 cells assessed as loss of cellular structure at 7.5 to 30 nM incubated for 24 hrs by DAPI staining based confocal microscopic analysis; type: functional, cell-based; conditions: dose 7.5-30 nM
# [14] = tested on: A-431; assay: Anti-microtubule activity in human A-431 cells assessed as cell membrane rounding at 7.5 to 30 nM incubated for 24 hrs by DAPI staining based confocal microscopic analysis; type: functional; conditions: dose 7.5-30 nM
# [15] = tested on: A-431; assay: Induction of cell cycle arrest in human A-431 cells assessed as accumulation at G1 phase at 15 nM after 48 hrs by propidium iodide staining based flow cytometry (reference value: 41.16%); type: functional
# [16] = tested on: A-431; assay: Induction of cell cycle arrest in human A-431 cells assessed as accumulation at G2 phase at 15 nM after 48 hrs by propidium iodide staining based flow cytometry (reference value: 7.27%); type: functional
# [17] = tested on: A-431; assay: Induction of cell cycle arrest in human A-431 cells assessed as accumulation at G1 phase at 30 nM after 48 hrs by propidium iodide staining based flow cytometry (reference value: 41.16%); type: functional
# [18] = tested on: A-431; assay: Induction of cell cycle arrest in human A-431 cells assessed as accumulation at S phase at 30 nM after 48 hrs by propidium iodide staining based flow cytometry (reference value: 46.57%); type: functional
# [19] = tested on: A-431; assay: Induction of cell cycle arrest in human A-431 cells assessed as accumulation at G2 phase at 30 nM after 48 hrs by propidium iodide staining based flow cytometry (reference value: 7.27%); type: functional
# [20] = tested on: A-431; assay: Cell cycle arrest in human A-431 cells assessed as downregulation of CyclinB1 expression by Western blot analysis; type: functional, cell-based; conditions: dose 7.5-30 nM
# [21] = tested on: A-431; assay: Cell cycle arrest in human A-431 cells assessed as downregulation of cdc2 expression by Western blot analysis; type: functional, cell-based; conditions: dose 7.5-30 nM
# [22] = tested on: A-431; assay: Induction of apoptosis in human A-431 cells assessed as viable cells at 7.5 nM after 48 hrs by Annexin-V-APC/PI-staining based flow cytometric analysis (reference value: 93.37%); type: functional; conditions: read-out: Activity
# [23] = tested on: A-431; assay: Induction of apoptosis in human A-431 cells assessed as early apoptotic cells at 7.5 nM after 48 hrs by Annexin-V-APC/PI-staining based flow cytometric analysis (reference value: 0.82%); type: functional
# [24] = tested on: A-431; assay: Induction of apoptosis in human A-431 cells assessed as late apoptotic cells at 7.5 nM after 48 hrs by Annexin-V-APC/PI-staining based flow cytometric analysis (reference value: 2.02%); type: functional
# [25] = tested on: A-431; assay: Induction of apoptosis in human A-431 cells assessed as viable cells at 15 nM after 48 hrs by Annexin-V-APC/PI-staining based flow cytometric analysis (reference value: 93.37%); type: functional; conditions: read-out: Activity
# [26] = tested on: A-431; assay: Induction of apoptosis in human A-431 cells assessed as necrotic cells at 15 nM after 48 hrs by Annexin-V-APC/PI-staining based flow cytometric analysis (reference value: 3.79%); type: functional
# [27] = tested on: A-431; assay: Induction of apoptosis in human A-431 cells assessed as early apoptotic cells at 30 nM after 48 hrs by Annexin-V-APC/PI-staining based flow cytometric analysis (reference value: 0.82%); type: functional
# [28] = tested on: A-431; assay: Induction of apoptosis in human A-431 cells assessed as late apoptotic cells at 30 nM after 48 hrs by Annexin-V-APC/PI-staining based flow cytometric analysis (reference value: 2.02%); type: functional
# [29] = tested on: A-431; assay: Induction of apoptosis in human A-431 cells assessed as upregulation of Bax protein expression by western blot analysis; type: functional, cell-based; conditions: dose 7.5-30 nM
# [30] = tested on: A-431; assay: Induction of apoptosis in human A-431 cells assessed as downregulation of Bcl2 protein expression by western blot analysis; type: functional, cell-based; conditions: dose 7.5-30 nM
# [31] = tested on: A-431; assay: Induction of apoptosis in human A-431 cells assessed as activation of caspase 9 at 7.5 to 30 nM by western blot analysis; type: functional, cell-based; conditions: dose 7.5-30 nM
# [32] = tested on: H22; assay: Antitumor activity against […] xenografted in ICR mouse assessed as reduction of tumor weight at 20 mg/kg/day, iv for 21 days; type: functional; conditions: 504 h, time 21 day
# [33] = tested on: H22; assay: Antivascular activity against […] xenografted in ICR mouse assessed as reduction in tumor microvessel density at 20 mg/kg/day, iv administered for 21 days by immunohistochemical staining based analysis; type: functional, organism-based; conditions: time 21.0 day
# [34] = Induction of mitochondria membrane potential loss in human A-431 cells assessed as green fluorescence intensity at 7.5 nM incubated 48 hrs by JC-1 probe based flow cytometry analysis (reference value: 5.98%); type: functional
# [35] = tested on: H22; assay: Antitumor activity against […] xenografted in ICR mouse assessed as reduction in tumor growth at 20 mg/kg/day, iv for 21 days; type: functional, organism-based; conditions: time 21.0 day
# [36] = tested on: HUVEC; assay: Antivascular activity in HUVEC assessed as inhibition of migration activity at 30 nM measured after 24 hrs by wound healing based phase contrast microscopic analysis; type: functional, cell-based; conditions: Homo sapiens
# [37] = tested on: HUVEC; assay: Cytotoxicity against HUVEC incubated for 6 hrs by inverted microscopic analysis; type: cell-based; conditions: Homo sapiens
# [38] = tested on: HepG2; assay: cells; conditions: Homo sapiens, HepG2, 72 h
# [39] = tested on: K562; assay: cells; conditions: Homo sapiens, K562, 72 h
# Description: Antiproliferative activity against human K562 cells assessed as reduction in cell viability incubated for 72 hrs by MTT assay
smiles,measurement,setting,value
COc1ccc(CNC(=O)c2cc(F)ccc2N2CCOCC2)cc1O,Activity,[1],Active
same,Activity,[2],Active
same,Activity,[3],Active
same,Activity,[4],45.4%
same,IC50,[5],20 nM
same,IC50,[6],27 nM
same,Ratio IC50,[7],3.9
same,Ratio IC50,[8],5.3
same,solubility,[9],76.6 µg/mL
same,inhibition,[10],56.9%
same,inhibition,[11],82.9%
same,Activity,[12],Active
same,Activity,[13],Active
same,Activity,[14],Active
same,Activity,[15],61.16%
same,Activity,[16],16.25%
same,Activity,[17],56.41%
same,Activity,[18],18.54%
same,Activity,[19],24.95%
same,Activity,[20],Dose-Dependent Effect
same,Activity,[21],Dose-Dependent Effect
same,viability at 0.0075 µM,[22],71%
same,Activity,[23],11.52%
same,Activity,[24],9.21%
same,viability at 0.015 µM,[25],45.4%
same,Activity,[26],9.79%
same,Activity,[27],34.02%
same,Activity,[28],32.12%
same,Activity,[29],Dose-Dependent Effect
same,Activity,[30],Dose-Dependent Effect
same,Activity,[31],Active
same,inhibition in vivo at 20 mg/kg/day,[32],66%
same,Activity,[33],Active
same,Activity,[34],26.73%
same,Activity,[35],Active
same,Activity,[36],Active
same,IC50,[37],120 nM
same,IC50,[38],25 nM
same,IC50,[39],19 nM
